Data from PubChem BioAssay AID330 (DTP/NCI, 2004).
“And” between values parts separate entries of the source, which are not always exact repeats. Equal entries are not always repeated. Inconclusive results and toxic doses are left out.

Tested on: P388 leukemia ip, CD2F1 mice, survival T/C
Assay: NCI In Vivo Anticancer Drug Screen. Data for tumor model P388 Leukemia (intraperitoneal) in CD2F1 (CDF1) mice
Conditions: endpoint: median survival time, higher = longer survival
Outline: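 Mice carrying the transplanted tumor received test compound or vehicle. Survival was recorded in each group, and the value is the treated-group measurement divided by that of the vehicle-treated control group.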

[1] = dose: 50.0 mg/kg/injection, schedule: Q01DX009 (ip), vehicle: Klucel (hydroxypropylcellulose) (HPC)
[2] = dose: 100.0 mg/kg/injection, schedule: Q01DX009 (ip), vehicle: Klucel (hydroxypropylcellulose) (HPC)
[3] = dose: 200.0 mg/kg/injection, schedule: Q01DX009 (ip), vehicle: Klucel (hydroxypropylcellulose) (HPC)
[4] = dose: 400.0 mg/kg/injection, schedule: Q01DX009 (ip), vehicle: Klucel (hydroxypropylcellulose) (HPC)
[5] = dose: 60.0 mg/kg/injection, schedule: Q01DX005 (ip), vehicle: saline with Tween-80
[6] = dose: 120.0 mg/kg/injection, schedule: Q01DX005 (ip), vehicle: saline with Tween-80
[7] = dose: 240.0 mg/kg/injection, schedule: Q01DX005 (ip), vehicle: saline with Tween-80
[8] = dose: 60.0 mg/kg/injection, schedule: Q01DX005 (ip), vehicle: Klucel (hydroxypropylcellulose) (HPC)
[9] = dose: 120.0 mg/kg/injection, schedule: Q01DX005 (ip), vehicle: Klucel (hydroxypropylcellulose) (HPC)
[10] = dose: 25.0 mg/kg/injection, schedule: Q01DX009 (ip), vehicle: Klucel (hydroxypropylcellulose) (HPC)
[11] = dose: 100.0 mg/kg/injection, schedule: Q04DX003 (ip), vehicle: saline with Tween-80
[12] = dose: 200.0 mg/kg/injection, schedule: Q04DX003 (ip), vehicle: saline with Tween-80
[13] = dose: 100.0 mg/kg/injection, schedule: Q01DX001 (ip), vehicle: Klucel (hydroxypropylcellulose) (HPC)
[14] = dose: 200.0 mg/kg/injection, schedule: Q01DX001 (ip), vehicle: Klucel (hydroxypropylcellulose) (HPC)
[15] = dose: 100.0 mg/kg/injection, schedule: Q04DX003 (ip), vehicle: Klucel (hydroxypropylcellulose) (HPC)
[16] = dose: 200.0 mg/kg/injection, schedule: Q04DX003 (ip), vehicle: Klucel (hydroxypropylcellulose) (HPC)

O=C1c2ccccc2C(=O)N1SN1C(=O)c2ccccc2C1=O
T/C [1]: 110 % of control
T/C [2]: 109 % of control
T/C [3]: 102 % of control
T/C [4]: 109 % of control

Cc1cc[n+](C2C(=O)c3ccccc3C(=O)C2Nc2cc(Cl)ccc2Cl)cc1 (stereo not drawn)
T/C [5]: 106 % of control
T/C [6]: 108 % of control
T/C [7]: 105 % of control

C/C=C(/C)C(=O)O[C@H]1C[C@H](C(C)C)c2cc(C)c(O)cc2[C@H]1C
T/C (dose: 57.5 mg/kg/injection, schedule: Q01DX001 (ip), vehicle: Klucel (hydroxypropylcellulose) (HPC)): 100 % of control
T/C (dose: 115.0 mg/kg/injection, schedule: Q01DX001 (ip), vehicle: Klucel (hydroxypropylcellulose) (HPC)): 97 % of control
T/C (dose: 230.0 mg/kg/injection, schedule: Q01DX001 (ip), vehicle: Klucel (hydroxypropylcellulose) (HPC)): 99 % of control

C=C1CC[C@H]2C(C)=CC[C@@H]3[C@H](OC(=O)[C@H]3CN3CCN(c4ccc(C)c([N+](=O)[O-])c4)CC3)[C@@H]12
T/C (dose: 100.0 mg/kg/injection, schedule: Q04DX002 (ip), vehicle: saline): 97 % of control
T/C (dose: 200.0 mg/kg/injection, schedule: Q04DX002 (ip), vehicle: saline): 99 % of control
T/C (dose: 400.0 mg/kg/injection, schedule: Q04DX002 (ip), vehicle: saline): 96 % of control

O=C1/C(=C/c2ccncc2)CCCc2ccccc21
T/C [8]: 102 % of control
T/C [9]: 104 % of control

CC(c1ccc(O)cc1)c1cc2c(cc1OCCO)OCO2 (stereo not drawn)
T/C (dose: 50.0 mg/kg/injection, schedule: Q01DX005 (ip), vehicle: saline with Tween-80): 94 % of control
T/C (dose: 100.0 mg/kg/injection, schedule: Q01DX005 (ip), vehicle: saline with Tween-80): 91 % of control
T/C (dose: 200.0 mg/kg/injection, schedule: Q01DX005 (ip), vehicle: saline with Tween-80): 92 % of control

COc1ccc(Cl)cc1NC(=O)Nc1nccs1
T/C [10]: 90 % of control
T/C [1]: 90 % of control
T/C [2]: 90 % of control
T/C [3]: 88 % of control

CCC1(C)CCC(C)(CC)c2c(C)cc(C(C)=O)cc21 (stereo not drawn)
T/C [11]: 114 % of control
T/C [12]: 97 % of control
T/C (dose: 400.0 mg/kg/injection, schedule: Q04DX003 (ip), vehicle: saline with Tween-80): 92 % of control

ClCC1CCN(Cc2ccccc2)CC1
T/C [11]: 97 % of control
T/C [12]: 100 % of control

Cc1s/c(=N/N=C2\C(=O)C=Cc3ccccc32)n(O)c1C
T/C [1]: 99 % of control
T/C [2]: 108 % of control
T/C [3]: 111 % of control

C=C1C(=O)OC2C1CC(O)/C(C)=C\CCC1(C)OC21 (stereo not drawn)
T/C (dose: 50.0 mg/kg/injection, schedule: Q01DX009 (ip), vehicle: distilled water + Tween-80 + alcohol): 117 % of control
T/C (dose: 70.0 mg/kg/injection, schedule: Q01DX009 (ip), vehicle: distilled water + Tween-80 + alcohol): 117 % of control
T/C (dose: 70.0 mg/kg/injection, schedule: Q01DX009 (ip), vehicle: water): 122 % of control
T/C (dose: 90.0 mg/kg/injection, schedule: Q01DX009 (ip), vehicle: distilled water + Tween-80 + alcohol): 104 % of control

CCOC(=O)c1ccc(NC(CCSc2ccccc2)=NC(C)(C)C)cc1
T/C (dose: 50.0 mg/kg/injection, schedule: Q01DX009 (ip), vehicle: saline with Tween-80): 103 % of control
T/C (dose: 100.0 mg/kg/injection, schedule: Q01DX009 (ip), vehicle: saline with Tween-80): 107 % of control
T/C (dose: 200.0 mg/kg/injection, schedule: Q01DX009 (ip), vehicle: saline with Tween-80): 94 % of control

COC(=O)NC(=O)CCC(=O)O
T/C (dose: 12.5 mg/kg/injection, schedule: Q01DX009 (ip), vehicle: saline): 104 % of control
T/C (dose: 25.0 mg/kg/injection, schedule: Q01DX009 (ip), vehicle: saline): 97 % of control
T/C (dose: 50.0 mg/kg/injection, schedule: Q01DX009 (ip), vehicle: saline): 100 % of control and 103 % of control

CNC(=S)N\N=C/C(/C=C/c1ccccc1)=N\NC(=S)NC
T/C [13]: 90 % of control
T/C [14]: 100 % of control

COc1cccc2c1C(=O)c1c(O)c3c(c(O)c1C2=O)CC(O)(C(N)=O)CC3OC1CC(N)C(O)C(C)O1 (stereo not drawn)
T/C (dose: 0.39 mg/kg/injection, schedule: Q01DX009 (ip), vehicle: water): 101 % of control
T/C (dose: 6.25 mg/kg/injection, schedule: Q01DX009 (ip), vehicle: water): 151 % of control

O=C1CC2(CCCCC2)CC(=O)N1c1ccc(O)c(CN(Cc2ccccc2)Cc2ccccc2)c1
T/C [15]: 90 % of control
T/C [16]: 92 % of control
T/C (dose: 400.0 mg/kg/injection, schedule: Q04DX003 (ip), vehicle: Klucel (hydroxypropylcellulose) (HPC)): 93 % of control

Cc1cccc(/C(=C\c2ccc([N+](=O)[O-])cc2)C(=O)Nc2ccc(S(=O)(=O)F)c(C)c2)c1
T/C [8]: 88 % of control
T/C [9]: 86 % of control

CCCOC(=O)/C=C(\Cl)C(=O)OCCC
T/C (dose: 6.25 mg/kg/injection, schedule: Q01DX009 (ip), vehicle: saline with Tween-80): 104 % of control
T/C (dose: 12.5 mg/kg/injection, schedule: Q01DX009 (ip), vehicle: saline with Tween-80): 109 % of control
T/C (dose: 25.0 mg/kg/injection, schedule: Q01DX009 (ip), vehicle: saline with Tween-80): 113 % of control

CC(C)N1C(C)(C)C1(C)C#N (stereo not drawn)
T/C (dose: 60.0 mg/kg/injection, schedule: Q01DX005 (ip), vehicle: saline): 100 % of control
T/C (dose: 120.0 mg/kg/injection, schedule: Q01DX005 (ip), vehicle: saline): 104 % of control

O=[N+]([O-])/C=C\c1ccc(/C=C/[N+](=O)[O-])cc1
T/C (dose: 1.25 mg/kg/injection, schedule: Q01DX009 (ip), vehicle: saline): 103 % of control and 107 % of control
T/C (dose: 1.25 mg/kg/injection, schedule: Q01DX009 (ip), vehicle: suspension in saline): 103 % of control
T/C (dose: 2.5 mg/kg/injection, schedule: Q01DX009 (ip), vehicle: saline): 100 % of control and 108 % of control
T/C (dose: 2.5 mg/kg/injection, schedule: Q01DX009 (ip), vehicle: suspension in saline): 116 % of control
T/C (dose: 5.0 mg/kg/injection, schedule: Q01DX009 (ip), vehicle: saline): 104 % of control and 107 % of control
T/C (dose: 5.0 mg/kg/injection, schedule: Q01DX009 (ip), vehicle: suspension in saline): 114 % of control
T/C (dose: 10.0 mg/kg/injection, schedule: Q01DX009 (ip), vehicle: saline): 106 % of control and 116 % of control
T/C (dose: 10.0 mg/kg/injection, schedule: Q01DX009 (ip), vehicle: suspension in saline): 116 % of control

O=C1CCCC2=C1C(c1ccccc1)/C(=N/O)O2 (stereo not drawn)
T/C (dose: 50.0 mg/kg/injection, schedule: Q04DX003 (ip), vehicle: Klucel (hydroxypropylcellulose) (HPC)): 97 % of control
T/C [15]: 101 % of control
T/C [16]: 100 % of control and 90 % of control

CC(=O)Nc1ccc(Sc2ncc([N+](=O)[O-])s2)cc1
T/C (dose: 12.5 mg/kg/injection, schedule: Q01DX009 (ip), vehicle: Klucel (hydroxypropylcellulose) (HPC)): 100 % of control
T/C [10]: 116 % of control
T/C [1]: 100 % of control and 108 % of control
T/C [2]: 102 % of control

C=C1C(=O)O[C@@H]2C[C@@H](C)[C@@H]3[C@@H](OC(C)=O)[C@@H](OC(C)=O)[C@H](OC(C)=O)[C@@]3(C)C[C@H]12
T/C (dose: 9.5 mg/kg/injection, schedule: Q01DX005 (ip), vehicle: Klucel (hydroxypropylcellulose) (HPC)): 102 % of control
T/C (dose: 19.0 mg/kg/injection, schedule: Q01DX005 (ip), vehicle: Klucel (hydroxypropylcellulose) (HPC)): 100 % of control
T/C (dose: 38.0 mg/kg/injection, schedule: Q01DX005 (ip), vehicle: Klucel (hydroxypropylcellulose) (HPC)): 106 % of control
T/C (dose: 76.0 mg/kg/injection, schedule: Q01DX005 (ip), vehicle: Klucel (hydroxypropylcellulose) (HPC)): 97 % of control

C1=NOC2c3ccc4ccccc4c3CCC12 (stereo not drawn)
T/C [2]: 100 % of control
T/C [3]: 95 % of control
T/C [4]: 100 % of control

CCn1c(Cl)c(C=O)c2ccccc21
T/C [13]: 100 % of control
T/C [14]: 92 % of control
T/C (dose: 400.0 mg/kg/injection, schedule: Q01DX001 (ip), vehicle: Klucel (hydroxypropylcellulose) (HPC)): 95 % of control

Nc1nc(N)c2nc(-c3ccc([N+](=O)[O-])cc3)c(=O)[nH]c2n1
T/C [5]: 94 % of control
T/C [6]: 91 % of control
T/C [7]: 91 % of control

O=C1CCCC(C(Sc2ccccc2)(Sc2ccccc2)Sc2ccccc2)C1 (stereo not drawn)
T/C [1]: 99 % of control
T/C [2]: 95 % of control
T/C [3]: 93 % of control

COc1cccc2cc(-c3c[nH]c4ccccc34)c(=O)oc12
T/C [5]: 105 % of control
T/C [6]: 98 % of control
T/C [7]: 95 % of control
